Results: US20240239786A1, “COMPOSITIONS AND METHODS FOR THE TREATMENT AND PREVENTION OF CANCER” (Yale University, priority 2021, published 2024)

Assays:
[1] = system: PEO4 cells; experiment: MTS cytotoxicity assay, sensitization to olaparib, PEO4; assay type: cell-based; details: 30 μM, olaparib 72 hr
Method: Cells were pre-treated with 30 μM DB4 for 1 hr and then treated with various concentrations of olaparib for 72 hr. Cell survival was determined by MTS cytotoxicity assay. Data are means±SD (N=3-4). […] EOB calculation was used to quantify the synergy of the combination of DB4 and various concentrations of olaparib in PEO1 or PEO4 cells as shown in FIG. 8A. EOB>0, synergism; EOB=0, additivity; EOB<0, antagonism. […] Cells were pre-treated with 30 μM DB4-F for 1 hr and then treated with various concentrations of olaparib for 72 hr. Cell survival was determined by MTS cytotoxicity assay. Data are means±SD (N=3-4). […] EOB calculation was used to quantify the synergy of the combination of DB4-F and various concentrations of olaparib in PEO1 or PEO4 cells as shown in FIG. 8B. EOB>0, synergism; EOB=0, additivity; EOB<0, antagonism. […] Cell survival was determined by MTS cytotoxicity assay. […] Caspase 3/7 activity was expressed as RLU per μg/μl protein. […] Caspase 3/7 activity was expressed as RLU per μg/μl protein. […] Cells were treated and caspase 3/7 activity was measured as described in FIG. 8G and FIG. 8H.
It was also examined whether DB4 sensitized BRCA-wild type EOC cells to a PARP inhibitor. BRCA2-mutated PEO1 and BRCA2-wild type PEO4 cells were treated with DB4 at 30 μM in combination with various concentrations of olaparib and cell survival was determined. […]

[2] = system: PEO1-OR cells; experiment: MTS cytotoxicity assay, sensitization to olaparib, PEO1-OR; assay type: cell-based
[3] = target: T1, ribonucleotide reductase (RNR) (Homo sapiens, UniProt P31350); details: fold more potent than hydroxyurea; cited from earlier work
T1 sequence (P31350 1-389): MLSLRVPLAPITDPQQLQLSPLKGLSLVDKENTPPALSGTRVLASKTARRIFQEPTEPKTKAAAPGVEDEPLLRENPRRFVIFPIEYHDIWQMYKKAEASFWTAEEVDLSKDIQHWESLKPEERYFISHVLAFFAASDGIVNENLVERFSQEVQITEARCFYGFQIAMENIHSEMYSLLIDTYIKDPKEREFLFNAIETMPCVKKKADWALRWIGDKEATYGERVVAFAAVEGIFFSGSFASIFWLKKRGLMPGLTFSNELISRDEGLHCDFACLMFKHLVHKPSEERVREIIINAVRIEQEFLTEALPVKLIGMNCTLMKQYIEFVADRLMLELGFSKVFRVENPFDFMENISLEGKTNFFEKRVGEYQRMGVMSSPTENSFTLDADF

[4] = cited from earlier work

Structure (SMILES) | sensitization to olaparib (cell survival) [1] | sensitization to olaparib (cell survival) ([2]; DB4 at 5 μM) | sensitization to olaparib (cell survival) ([2]; DB4 at 20 μM) | potency relative to the RNR inhibitor hydroxyurea [3] | side effects ([4]; patients) | clinical response rates ([4]; phase I/II studies)
C=CCn1c(SCc2cccc(Cl)c2)nnc1C1CCN(Cc2nc3ccccc3s2)CC1 [DB4, 2-[(4-{4-allyl-5-[(3-chlorobenzyl)thio]-4H-1,2,4-triazol-3-yl}-1-piperidinyl)methyl]-1,3-benzothiazole] | effectively sensitized | partially sensitized | near-fully sensitized | – | – | –
NC(=S)NN=Cc1ncccc1N [triapine, 3-aminopyridine-2-carboxaldehyde-thiosemicarbazone, reference compound] | – | – | – | 1,000 times | methemoglobinemia and dyspnea | more than 80%
